Values belong to the compound of their own block, whether it stands above or below them.
Assays:
[1] = Intrinsic clearance in human microsomes; assay type: ADME
[2] = molecular target: Acetyl-CoA carboxylase 1 (Rattus norvegicus, UniProt P11497); experiment: Inhibition of rat recombinant ACC1
[3] = Lipophilicity, log D of the compound; assay type: physicochemical; details: octanol/water
[4] = molecular target: T1, Acetyl-CoA carboxylase 2 (Homo sapiens, UniProt O00763); experiment: Inhibition of human ACC2 assessed as malonyl CoA formation by NADH-linked kinetic method
T1 sequence (O00763 whole entry): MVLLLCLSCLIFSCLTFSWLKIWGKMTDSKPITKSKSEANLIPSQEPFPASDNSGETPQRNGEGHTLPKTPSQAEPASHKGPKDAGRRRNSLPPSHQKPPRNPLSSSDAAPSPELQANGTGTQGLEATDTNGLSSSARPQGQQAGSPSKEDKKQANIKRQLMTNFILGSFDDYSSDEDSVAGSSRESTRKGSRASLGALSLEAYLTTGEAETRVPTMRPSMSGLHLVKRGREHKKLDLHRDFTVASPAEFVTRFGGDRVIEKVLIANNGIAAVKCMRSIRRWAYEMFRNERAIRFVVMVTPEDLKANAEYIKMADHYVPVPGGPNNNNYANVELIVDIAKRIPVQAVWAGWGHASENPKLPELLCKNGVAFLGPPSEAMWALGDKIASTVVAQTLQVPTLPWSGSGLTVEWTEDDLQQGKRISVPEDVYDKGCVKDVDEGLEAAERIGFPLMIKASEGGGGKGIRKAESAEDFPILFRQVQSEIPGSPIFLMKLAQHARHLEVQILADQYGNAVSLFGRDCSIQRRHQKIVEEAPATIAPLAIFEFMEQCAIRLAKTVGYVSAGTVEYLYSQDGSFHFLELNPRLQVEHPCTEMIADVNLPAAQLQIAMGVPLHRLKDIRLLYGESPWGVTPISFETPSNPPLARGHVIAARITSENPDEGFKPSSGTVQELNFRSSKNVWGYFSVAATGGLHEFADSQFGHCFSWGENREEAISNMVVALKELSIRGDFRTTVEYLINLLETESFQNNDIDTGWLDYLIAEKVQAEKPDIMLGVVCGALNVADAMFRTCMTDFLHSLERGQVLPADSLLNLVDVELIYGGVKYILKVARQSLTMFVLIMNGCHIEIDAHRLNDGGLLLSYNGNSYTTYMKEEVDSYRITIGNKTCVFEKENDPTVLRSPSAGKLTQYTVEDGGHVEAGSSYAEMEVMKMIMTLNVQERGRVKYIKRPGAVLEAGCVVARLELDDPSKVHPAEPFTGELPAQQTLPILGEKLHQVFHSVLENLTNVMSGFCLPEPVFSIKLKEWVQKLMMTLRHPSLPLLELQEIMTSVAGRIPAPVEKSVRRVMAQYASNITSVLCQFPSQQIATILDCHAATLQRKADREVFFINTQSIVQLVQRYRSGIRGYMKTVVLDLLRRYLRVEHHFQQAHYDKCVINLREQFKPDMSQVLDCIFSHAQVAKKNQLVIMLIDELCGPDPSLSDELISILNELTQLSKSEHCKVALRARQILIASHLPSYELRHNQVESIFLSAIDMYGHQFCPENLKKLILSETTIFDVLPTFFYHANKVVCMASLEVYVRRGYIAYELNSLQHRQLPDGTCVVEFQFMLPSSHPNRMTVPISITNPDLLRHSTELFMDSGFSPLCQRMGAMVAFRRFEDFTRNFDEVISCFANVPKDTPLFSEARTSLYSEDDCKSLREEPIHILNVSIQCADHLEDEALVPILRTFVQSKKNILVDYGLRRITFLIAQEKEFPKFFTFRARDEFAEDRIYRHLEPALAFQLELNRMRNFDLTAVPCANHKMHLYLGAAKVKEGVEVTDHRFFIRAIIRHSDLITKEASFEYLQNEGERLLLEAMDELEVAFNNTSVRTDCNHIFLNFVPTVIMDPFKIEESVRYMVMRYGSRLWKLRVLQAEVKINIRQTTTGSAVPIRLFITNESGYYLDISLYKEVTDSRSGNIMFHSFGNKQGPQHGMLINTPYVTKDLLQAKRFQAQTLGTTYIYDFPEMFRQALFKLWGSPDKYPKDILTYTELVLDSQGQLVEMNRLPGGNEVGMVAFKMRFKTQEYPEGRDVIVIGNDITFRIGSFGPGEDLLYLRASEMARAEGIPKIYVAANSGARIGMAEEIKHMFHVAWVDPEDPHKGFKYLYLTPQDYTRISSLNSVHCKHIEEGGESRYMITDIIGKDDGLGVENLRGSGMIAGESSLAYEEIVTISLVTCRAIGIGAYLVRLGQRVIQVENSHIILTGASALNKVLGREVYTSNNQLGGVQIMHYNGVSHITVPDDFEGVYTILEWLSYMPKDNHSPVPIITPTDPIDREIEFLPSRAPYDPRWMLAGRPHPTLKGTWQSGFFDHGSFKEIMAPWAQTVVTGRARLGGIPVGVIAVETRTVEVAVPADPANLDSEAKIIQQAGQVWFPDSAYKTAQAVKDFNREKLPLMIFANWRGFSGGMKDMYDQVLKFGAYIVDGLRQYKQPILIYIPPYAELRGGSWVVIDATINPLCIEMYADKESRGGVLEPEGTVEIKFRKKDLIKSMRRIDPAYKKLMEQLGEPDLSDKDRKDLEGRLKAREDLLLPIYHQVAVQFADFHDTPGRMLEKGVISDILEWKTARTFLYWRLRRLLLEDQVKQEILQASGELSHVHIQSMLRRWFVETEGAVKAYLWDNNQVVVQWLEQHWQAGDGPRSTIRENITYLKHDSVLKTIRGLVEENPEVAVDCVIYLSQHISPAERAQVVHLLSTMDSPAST

[5] = molecular target: Acetyl-CoA carboxylase 1 (Homo sapiens, UniProt Q13085); experiment: In vitro inhibition of human recombinant His-tagged ACC1 assessed as malonyl-CoA level
[6] = test system: HepG2; experiment: Inhibition of fatty acid synthesis in human HepG2 cells; assay type: functional, cell-based
[7] = molecular target: T1, Acetyl-CoA carboxylase 2; experiment: In vitro inhibition of human recombinant His-tagged ACC2 assessed as malonyl-CoA level
[8] = organism: Rattus norvegicus; experiment: Reduction in fatty acid synthesis in Sprague-Dawley rat; assay type: functional

Structure (SMILES): Cc1cc2c(cc1C)C(=O)CC1(CCN(C(=O)c3cc(C)c4[nH]ncc4c3)CC1)O2
CLint scaled [1]: 86 mL/min/kg
IC50 [2]: 25 nM

Structure (SMILES): CC(C)(C)n1cc2c(n1)C(=O)CC1(CCN(C(=O)c3ccc4[nH]ncc4c3)CC1)O2
CLint scaled [1]: ≤ 8 mL/min/kg
logD [3]: 1.8

Structure (SMILES): CCOC(=O)N1CCN(c2nc(C)nc3sc4c(c23)CCCC4)CC1
IC50 [5]: 23000 nM

Structure (SMILES): COc1ccccc1[C@@H](Cn1c(=O)n(C(C)(C)C(=O)O)c(=O)c2c(C)c(-c3ncco3)sc21)OC(C)C
IC50 [6]: < 100 nM

Continued, in another order:

logD [3]: 5.9
Structure (SMILES): CC(C)(C)OC(=O)CC[C@H]1CC[C@H](CNC(=O)c2cc(-c3ccccc3)nc3ccccc23)CC1

IC50 [4]: 50 nM
Structure (SMILES): CCOc1ccc(N2CC(Oc3ccc([C@H](C)NC(=O)c4cn[nH]c4)cc3)C2)c(C)c1

IC50 [4]: 60 nM
Structure (SMILES): CCCOc1ccc(C2CCN(c3ccc(C(C)NC(C)=O)cc3F)CC2)c(C)c1 (racemic)

IC50 [4]: 80 nM
Structure (SMILES): Cc1cc(OCC2CC2)ccc1C1CCN(c2ccc(C(C)C(=O)NC3CC3)cc2)CC1 (racemic)

IC50 [7]: 1.7 nM
IC50 [5]: 2.6 nM
IC50 [6]: < 100 nM
Structure (SMILES): COc1ccccc1[C@H](Cn1c(=O)n(C(C)(C)C(=O)O)c(=O)c2c(C)c(-c3ncco3)sc21)OC1CCOCC1 [FIRSOCOSTAT]
ED50 [8]: < 0.3 mg/kg

— ChEMBL document CHEMBL3407354, “Recent advances in the development of acetyl-CoA carboxylase (ACC) inhibitors for the treatment of metabolic disease” (J Med Chem, 2015)
